Test results reported in PubChem BioAssay AID256 (DTP/NCI, 2004).
Values joined by “and” are separate entries in the source; they are usually repeats but may differ in a detail not shown here. Identical values can stand only once. Inconclusive results and toxic doses are left out.

System: CD2F1 mice, L1210 leukemia ip, survival T/C
Test: NCI In Vivo Anticancer Drug Screen. Data for tumor model L1210 Leukemia (intraperitoneal) in CD2F1 (CDF1) mice
Settings: higher = longer survival
How it was run: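 Implant tumor; dose compound or vehicle; measure endpoint in both groups; report treated divided by control.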

[1] = endpoint: mean survival time, dose: 50.0 mg/kg/injection, schedule: Q01DX009 (ip), vehicle: saline with Tween-80
[2] = endpoint: mean survival time, dose: 100.0 mg/kg/injection, schedule: Q01DX009 (ip), vehicle: saline with Tween-80
[3] = endpoint: mean survival time, dose: 200.0 mg/kg/injection, schedule: Q01DX009 (ip), vehicle: saline with Tween-80
[4] = endpoint: mean survival time, dose: 100.0 mg/kg/injection, schedule: Q04DX003 (ip), vehicle: saline with Tween-80
[5] = endpoint: mean survival time, dose: 200.0 mg/kg/injection, schedule: Q04DX003 (ip), vehicle: saline with Tween-80
[6] = endpoint: mean survival time, dose: 400.0 mg/kg/injection, schedule: Q04DX003 (ip), vehicle: saline with Tween-80

In the case of `C[C@@](O)(/C=C/[C@H]1CC=CC(=O)O1)[C@@H](C[C@@H](O)\C=C/C=C\C=C\CO)OP(=O)(O)O`, the T/C (endpoint: median survival time, dose: 0.4 mg/kg/injection, schedule: Q01DX005 (iv), vehicle: other) is reported as 109 % of control, the T/C (endpoint: median survival time, dose: 0.78 mg/kg/injection, schedule: Q01DX005 (iv), vehicle: other) is reported as 109 % of control and the T/C (endpoint: median survival time, dose: 1.56 mg/kg/injection, schedule: Q01DX005 (iv), vehicle: other) is reported as 112 % of control. For the same molecule, the T/C (endpoint: median survival time, dose: 1.56 mg/kg/injection, schedule: Q01DX005 (iv), vehicle: saline) was 121 % of control, the T/C (endpoint: median survival time, dose: 1.56 mg/kg/injection, schedule: Q01DX009 (ip), vehicle: other) was 243 % of control and the T/C (endpoint: median survival time, dose: 1.56 mg/kg/injection, schedule: Q01DX009 (ip), vehicle: saline) was 216 % of control. The T/C (endpoint: median survival time, dose: 3.12 mg/kg/injection, schedule: Q01DX009 (ip), vehicle: other) was 170 % of control and 191 % of control, the T/C (endpoint: median survival time, dose: 3.12 mg/kg/injection, schedule: Q01DX009 (ip), vehicle: saline) was 204 % of control and the T/C (endpoint: median survival time, dose: 3.13 mg/kg/injection, schedule: Q01DX005 (iv), vehicle: other) was 123 % of control. For the same molecule, the T/C (endpoint: median survival time, dose: 3.13 mg/kg/injection, schedule: Q01DX009 (ip), vehicle: other) was 235 % of control, the T/C (endpoint: median survival time, dose: 6.25 mg/kg/injection, schedule: Q01DX005 (iv), vehicle: other) was 162 % of control and the T/C (endpoint: median survival time, dose: 6.25 mg/kg/injection, schedule: Q01DX009 (ip), vehicle: other) was 194 % of control and 207 % of control and 512 % of control. The T/C (endpoint: median survival time, dose: 6.25 mg/kg/injection, schedule: Q01DX009 (ip), vehicle: saline) was 216 % of control, the T/C (endpoint: median survival time, dose: 12.5 mg/kg/injection, schedule: Q01DX005 (iv), vehicle: other) was 197 % of control and the T/C (endpoint: median survival time, dose: 12.5 mg/kg/injection, schedule: Q01DX005 (iv), vehicle: saline) was 178 % of control. The T/C (endpoint: median survival time, dose: 12.5 mg/kg/injection, schedule: Q01DX009 (ip), vehicle: other) was 117 % of control and 337 % of control, the T/C (endpoint: median survival time, dose: 12.5 mg/kg/injection, schedule: Q01DX009 (ip), vehicle: saline) was 722 % of control and the T/C (endpoint: median survival time, dose: 25.0 mg/kg/injection, schedule: Q01DX005 (iv), vehicle: other) was 259 % of control. The T/C (endpoint: median survival time, dose: 25.0 mg/kg/injection, schedule: Q01DX005 (iv), vehicle: saline) was 201 % of control, the T/C (endpoint: median survival time, dose: 25.0 mg/kg/injection, schedule: Q01DX009 (ip), vehicle: other) was 273 % of control and the T/C (endpoint: median survival time, dose: 50.0 mg/kg/injection, schedule: Q01DX005 (iv), vehicle: saline) was 240 % of control.
With `CC(=O)OCC1OC(n2ccc(-n3cncn3)nc2=O)CC1N=[N+]=[N-]` (stereo not drawn) the T/C (endpoint: median survival time, dose: 12.5 mg/kg/injection, schedule: Q01DX005 (ip), vehicle: saline with Tween-80) was 101 % of control, the T/C (endpoint: median survival time, dose: 25.0 mg/kg/injection, schedule: Q01DX005 (ip), vehicle: saline with Tween-80) was 104 % of control and the T/C (endpoint: median survival time, dose: 50.0 mg/kg/injection, schedule: Q01DX005 (ip), vehicle: saline with Tween-80) was 98 % of control. For the same molecule, the T/C (endpoint: median survival time, dose: 100.0 mg/kg/injection, schedule: Q01DX005 (ip), vehicle: saline with Tween-80) was 94 % of control and the T/C (endpoint: median survival time, dose: 200.0 mg/kg/injection, schedule: Q01DX005 (ip), vehicle: saline with Tween-80) was 93 % of control.
In the case of `CCCCC(O)C(C)C` (stereo not drawn), the T/C [1] is reported as 100 % of control, the T/C [2] is reported as 103 % of control and the T/C [3] is reported as 106 % of control.
`CCCCCCCC(=O)Nc1cc(C)ccc1C` was tested, and the T/C [2] was 94 % of control, the T/C [4] was 98 % of control and the T/C [3] was 94 % of control. The T/C [5] was 97 % of control, the T/C (endpoint: mean survival time, dose: 400.0 mg/kg/injection, schedule: Q01DX009 (ip), vehicle: saline with Tween-80) was 98 % of control and the T/C [6] was 98 % of control.
For `CN(C)c1ccc(N=Nc2ccc3c(c2)C(=O)c2ccccc2C3=O)cc1`, the T/C (endpoint: mean survival time, dose: 100.0 mg/kg/injection, schedule: Q04DX003 (ip), vehicle: other) was 95 % of control, the T/C (endpoint: mean survival time, dose: 200.0 mg/kg/injection, schedule: Q04DX003 (ip), vehicle: other) was 93 % of control and the T/C (endpoint: mean survival time, dose: 400.0 mg/kg/injection, schedule: Q04DX003 (ip), vehicle: other) was 98 % of control.
With `CC(C)C(C(O)c1ccccc1)[N+](=O)[O-]` (stereo not drawn) the T/C (endpoint: mean survival time, dose: 100.0 mg/kg/injection, schedule: Q01DX009 (ip), vehicle: saline sonified) was 102 % of control, the T/C [4] was 102 % of control and the T/C (endpoint: mean survival time, dose: 200.0 mg/kg/injection, schedule: Q01DX009 (ip), vehicle: saline sonified) was 102 % of control. For the same molecule, the T/C [5] was 96 % of control, the T/C (endpoint: mean survival time, dose: 400.0 mg/kg/injection, schedule: Q01DX009 (ip), vehicle: saline sonified) was 100 % of control and the T/C [6] was 100 % of control.
With `CCOC(=O)c1ccc(NC(=O)NC(Cc2ccccc2)c2ccccc2)cc1` (stereo not drawn) the T/C (endpoint: mean survival time, dose: 25.0 mg/kg/injection, schedule: Q04DX003 (ip), vehicle: saline with Tween-80) was 111 % of control, the T/C (endpoint: mean survival time, dose: 50.0 mg/kg/injection, schedule: Q01DX001 (ip), vehicle: saline with Tween-80) was 96 % of control and the T/C [1] was 87 % of control and 91 % of control. For the same molecule, the T/C (endpoint: mean survival time, dose: 50.0 mg/kg/injection, schedule: Q04DX003 (ip), vehicle: saline with Tween-80) was 104 % of control, the T/C (endpoint: mean survival time, dose: 100.0 mg/kg/injection, schedule: Q01DX001 (ip), vehicle: saline with Tween-80) was 96 % of control and the T/C [2] was 87 % of control. For the same molecule, the T/C (endpoint: mean survival time, dose: 100.0 mg/kg/injection, schedule: Q04DX002 (ip), vehicle: saline with Tween-80) was 91 % of control, the T/C [4] was 89 % of control and 106 % of control and the T/C (endpoint: mean survival time, dose: 200.0 mg/kg/injection, schedule: Q01DX001 (ip), vehicle: saline with Tween-80) was 94 % of control. The T/C [3] was 87 % of control and 90 % of control, the T/C (endpoint: mean survival time, dose: 200.0 mg/kg/injection, schedule: Q04DX002 (ip), vehicle: saline with Tween-80) was 87 % of control and 88 % of control and the T/C [5] was 101 % of control. For the same molecule, the T/C (endpoint: mean survival time, dose: 400.0 mg/kg/injection, schedule: Q01DX001 (ip), vehicle: saline with Tween-80) was 94 % of control and the T/C (endpoint: mean survival time, dose: 400.0 mg/kg/injection, schedule: Q04DX002 (ip), vehicle: saline with Tween-80) was 86 % of control.
